Assay results: patent US10336697B2, “Spiro[cyclobutane-1,3′-indolin]-2′-one derivatives as bromodomain inhibitors” (Orion Corporation, priority 2015, dated 2019)

Molecular target: Bet BRD4 full length bromo-domain protein (Homo sapiens, UniProt O60885)
Test: Bet bromodomain TR-FRET assay (displacement of acetyl histone peptide)
Format: binding
Details: Bet BRD4 full length bromodomain protein, 300 nM acetyl histone peptide substrate, read-out: IC50

| SMILES | IC50 [nM] |
| --- | --- |
| COc1ccccc1S(=O)(=O)Nc1cc(C(C)c2cccnc2)c2c(c1)C1(CCC1)C(=O)N2 (stereo not drawn) [Compound 122, 2-Methoxy-N-(2′-oxo-7′-(1-(pyridin-3-yl)ethyl)spiro[cyclobutane-1,3′-indolin]-5′-yl)benzenesulfonamide] | < 600 |
| COc1ccccc1S(=O)(=O)Nc1cc(C(C)c2ccccn2)c2c(c1)C1(CCC1)C(=O)N2 (stereo not drawn) [Compound 123, 2-Methoxy-N-(2′-oxo-7′-(1-(pyridin-2-yl)ethyl)spiro [cyclobutane-1,3′-indolin]-5′-yl)benzenesulfonamide] | < 600 |
| COc1ccccc1S(=O)(=O)Nc1cc(Oc2ccccn2)c2c(c1)C1(CCC1)C(=O)N2 [Compound 124, 2-Methoxy-N-(2′-oxo-7′-(pyridin-2-yloxy)spiro[cyclobutane-1,3′-indolin]-5′-yl)benzenesulfonamide] | < 600 |
| COc1ccccc1S(=O)(=O)Nc1cc(C(F)c2ccccc2)c2c(c1)C1(CCC1)C(=O)N2 (stereo not drawn) [Compound 125, N-(7′-(fluoro(phenyl)methyl)-2′-oxospiro[cyclobutane-1,3′-indolin]-5′-yl)-2-methoxybenzenesulfonamide] | < 600 |
| CC(c1ccccc1)c1cc(NS(=O)(=O)c2ccc(F)cc2F)cc2c1NC(=O)C21CCC1 (stereo not drawn) [Compound 126, 2,4-Difluoro-N-(2′-oxo-7′-(1-phenylethyl)spiro[cyclobutane-1,3′-indolin]-5′-yl)benzenesulfonamide] | 600 to 1000 |
| COc1ccc(F)cc1S(=O)(=O)Nc1cc(OC2CCN(C)CC2)c2c(c1)C1(CCC1)C(=O)N2 [Compound 129, 5-Fluoro-2-methoxy-N-(7′-((1-methylpiperidin-4-yl)oxy)-2′-oxospiro[cyclobutane-1,3′-indolin]-5′-yl)benzenesulfonamide] | < 600 |
| CN1CCC(Oc2cc(NS(=O)(=O)c3ccc(Cl)cc3F)cc3c2NC(=O)C32CCC2)CC1 [Compound 130, 4-Chloro-2-fluoro-N-(7′-((1-methylpiperidin-4-yl)oxy)-2′-oxospiro[cyclobutane-1,3′-indolin]-5′-yl)benzenesulfonamide] | < 600 |
| CN1CCCC(Oc2cc(NS(=O)(=O)c3ccc(Cl)cc3F)cc3c2NC(=O)C32CCC2)C1 (stereo not drawn) [Compound 131, 4-Chloro-2-fluoro-N-(7′-((1-methylpiperidin-3-yl)oxy)-2′-oxospiro[cyclobutane-1,3′-indolin]-5′-yl)benzenesulfonamide] | 600 to 1000 |
| CN1CCC(Oc2cc(NS(=O)(=O)c3ccc(F)cc3Br)cc3c2NC(=O)C32CCC2)CC1 [Compound 132, 2-Bromo-4-fluoro-N-(7′-((1-methylpiperidin-4-yl)oxy)-2′-oxospiro[cyclobutane-1,3′-indolin]-5′-yl)benzenesulfonamide] | < 600 |
| CN1CCC(Oc2cc(NS(=O)(=O)c3ccccc3Cl)cc3c2NC(=O)C32CCC2)CC1 [Compound 133, 2-Chloro-N-(7′-((1-methylpiperidin-4-yl)oxy)-2′-oxospiro[cyclobutane-1,3′-indolin]-5′-yl)benzenesulfonamide] | < 600 |
| CN1CCC(Oc2cc(NS(=O)(=O)c3ccc(F)cc3Cl)cc3c2NC(=O)C32CCC2)CC1 [Compound 134, 2-Chloro-4-fluoro-N-(7′-((1-methylpiperidin-4-yl)oxy)-2′-oxospiro[cyclobutane-1,3′-indolin]-5′-yl)benzenesulfonamide] | < 600 |
| CCN1CCC(Oc2cc(NS(=O)(=O)c3ccccc3OC)cc3c2NC(=O)C32CCC2)CC1 [Compound 135, N-(7′-((1-ethylpiperidin-4-yl)oxy)-2′-oxospiro[cyclobutane-1,3′-indolin]-5′-yl)-2-methoxybenzenesulfonamide] | < 600 |
| COc1ccccc1S(=O)(=O)Nc1cc(OC2CCN(C(C)C)CC2)c2c(c1)C1(CCC1)C(=O)N2 [Compound 136, N-(7′-((1-isopropylpiperidin-4-yl)oxy)-2′-oxospiro[cyclobutane-1,3′-indolin]-5′-yl)-2-methoxybenzenesulfonamide] | < 600 |
| COc1ccccc1S(=O)(=O)Nc1cc(OC2CCN(C3CC3)CC2)c2c(c1)C1(CCC1)C(=O)N2 [Compound 137, N-(7′-((1-cyclopropylpiperidin-4-yl)oxy)-2′-oxospiro[cyclobutane-1,3′-indolin]-5′-yl)-2-methoxybenzenesulfonamide] | < 600 |

Other lines, results leading:

| IC50 [nM] | SMILES |
| --- | --- |
| < 600 | CN1CCC(Oc2cc(NS(=O)(=O)c3ccc(Cl)cc3F)cc3c2NC(=O)C32CCC2)C1 (stereo not drawn) [Compound 138, 4-Chloro-2-fluoro-N-(7′-((1-methylpyrrolidin-3-yl)oxy)-2′-oxospiro[cyclobutane-1,3′-indolin]-5′-yl)benzenesulfonamide] |
| < 600 | COc1ccccc1S(=O)(=O)Nc1cc(OC[C@@H]2CCCN2C)c2c(c1)C1(CCC1)C(=O)N2 [Compound 139, (S)-2-methoxy-N-(7′-((1-methylpyrrolidin-2-yl)methoxy)-2′-oxospiro[cyclobutane-1,3′-indolin]-5′-yl)benzenesulfonamide] |
| < 600 | COc1ccccc1S(=O)(=O)Nc1cc(OC2CCCN(C)CC2)c2c(c1)C1(CCC1)C(=O)N2 (stereo not drawn) [Compound 140, 2-Methoxy-N-(7′-((1-methylazepan-4-yl)oxy)-2′-oxospiro[cyclobutane-1,3′-indolin]-5′-yl)benzenesulfonamide] |
| < 600 | COc1ccccc1S(=O)(=O)Nc1cc(OC2CCOCC2)c2c(c1)C1(CCC1)C(=O)N2 [Compound 141, 2-Methoxy-N-(2′-oxo-7′-((tetrahydro-2H-pyran-4-yl)oxy)spiro[cyclobutane-1,3′-indolin]-5′-yl)benzenesulfonamide] |
| < 600 | O=C1Nc2c(OC3CCOCC3)cc(NS(=O)(=O)c3ccc(Cl)cc3F)cc2C12CCC2 [Compound 142, 4-Chloro-2-fluoro-N-(2′-oxo-7′-((tetrahydro-2H-pyran-4-yl)oxy)spiro[cyclobutane-1,3′-indolin]-5′-yl)benzenesulfonamide] |
| < 600 | COc1ccccc1S(=O)(=O)Nc1cc(OC2CCS(=O)(=O)CC2)c2c(c1)C1(CCC1)C(=O)N2 [Compound 143, N-(7′-((1,1-dioxidotetrahydro-2H-thiopyran-4-yl)oxy)-2′-oxospiro[cyclobutane-1,3′-indolin]-5′-yl)-2-methoxybenzenesulfonamide] |
| < 600 | O=C1Nc2c(OC3CCS(=O)(=O)CC3)cc(NS(=O)(=O)c3ccc(Cl)cc3F)cc2C12CCC2 [Compound 144, 4-Chloro-N-(7′-((1,1-dioxidotetrahydro-2H-thiopyran-4-yl)oxy)-2′-oxospiro[cyclobutane-1,3′-indolin]-5′-yl)-2-fluorobenzenesulfonamide] |
| < 600 | COc1ccccc1S(=O)(=O)Nc1cc(Oc2ccc(N)nc2)c2c(c1)C1(CCC1)C(=O)N2 [Compound 145, N-(7′-((6-aminopyridin-3-yl)oxy)-2′-oxospiro[cyclobutane-1,3′-indolin]-5′-yl)-2-methoxybenzenesulfonamide] |
| < 600 | COc1ccccc1S(=O)(=O)Nc1cc(OCC2CCN(C)CC2)c2c(c1)C1(CCC1)C(=O)N2 [Compound 146, 2-Methoxy-N-(7′-((1-methylpiperidin-4-yl)methoxy)-2′-oxospiro[cyclobutane-1,3′-indolin]-5′-yl)benzenesulfonamide] |
| < 600 | O=C1Nc2c(OCc3ccc(F)cn3)cc(NS(=O)(=O)c3ccc(Cl)cc3F)cc2C12CCC2 [Compound 147, 4-Chloro-2-fluoro-N-(7′-((5-fluoropyridin-2-yl)methoxy)-2′-oxospiro[cyclobutane-1,3′-indolin]-5′-yl)benzenesulfonamide] |
| < 600 | COc1ccccc1S(=O)(=O)Nc1cc(OCc2ccc(F)cn2)c2c(c1)C1(CCC1)C(=O)N2 [Compound 148, N-(7′-((5-fluoropyridin-2-yl)methoxy)-2′-oxospiro[cyclobutane-1,3′-indolin]-5′-yl)-2-methoxybenzenesulfonamide] |
| < 600 | COc1ccccc1S(=O)(=O)Nc1cc(OCc2cncc(F)c2)c2c(c1)C1(CCC1)C(=O)N2 [Compound 149, N-(7′-((5-fluoropyridin-3-yl)methoxy)-2′-oxospiro[cyclobutane-1,3′-indolin]-5′-yl)-2-methoxybenzenesulfonamide] |
| < 600 | COc1ccccc1S(=O)(=O)Nc1cc(OCc2cccnc2)c2c(c1)C1(CCC1)C(=O)N2 [Compound 157, 2-Methoxy-N-(2′-oxo-7′-(pyridin-3-ylmethoxy)spiro[cyclobutane-1,3′-indolin]-5′-yl)benzenesulfonamide] |
| < 600 | COc1ccccc1S(=O)(=O)Nc1cc(OCc2ccccn2)c2c(c1)C1(CCC1)C(=O)N2 [Compound 158, 2-Methoxy-N-(2′-oxo-7′-(pyridin-2-ylmethoxy)spiro[cyclobutane-1,3′-indolin]-5′-yl)benzenesulfonamide] |
| < 600 | O=C1Nc2c(OCCc3ccccn3)cc(NS(=O)(=O)c3ccc(Cl)cc3F)cc2C12CCC2 [Compound 159, 4-Chloro-2-fluoro-N-(2′-oxo-7′-(2-(pyridin-2-yl)ethoxy)spiro[cyclobutane-1,3′-indolin]-5′-yl)benzenesulfonamide] |
| < 600 | Cn1cncc1COc1cc(NS(=O)(=O)c2ccc(Cl)cc2F)cc2c1NC(=O)C21CCC1 [Compound 160, 4-Chloro-2-fluoro-N-(7′-((1-methyl-1H-imidazol-5-yl)methoxy)-2′-oxospiro[cyclobutane-1,3′-indolin]-5′-yl)benzenesulfonamide] |
| < 600 | O=C1Nc2c(OCCn3cccn3)cc(NS(=O)(=O)c3ccc(Cl)cc3F)cc2C12CCC2 [Compound 161, N-(7′-(2-(1H-pyrazol-1-yl)ethoxy)-2′-oxospiro[cyclobutane-1,3′-indolin]-5′-yl)-4-chloro-2-fluorobenzenesulfonamide] |
| < 600 | COc1ccccc1S(=O)(=O)Nc1cc(OCCN(C)C)c2c(c1)C1(CCC1)C(=O)N2 [Compound 162, N-(7′-(2-(dimethylamino)ethoxy)-2′-oxospiro[cyclobutane-1,3′-indolin]-5′-yl)-2-methoxybenzenesulfonamide] |
| < 600 | CN(C)CCOc1cc(NS(=O)(=O)c2ccc(Cl)cc2F)cc2c1NC(=O)C21CCC1 [Compound 163, 4-Chloro-N-(7′-(2-(dimethylamino)ethoxy)-2′-oxospiro[cyclobutane-1,3′-indolin]-5′-yl)-2-fluorobenzenesulfonamide] |
